Results published in patent publication US9439915B2, “Activated nitric oxide donors and methods of making and using thereof” (University of Utah Research Foundation, priority 2008, dated 2016).

Key:
[1] = Stability in pooled human plasma; type: in vitro ADME; conditions: 37° C., micelle 50, free 10 micromolar, average and SEM of 2
[2] = Stability in RPMI media with 10% Fetal Bovine Serum; type: in vitro ADME; conditions: RPMI/10% FBS, 37° C.; micelle 50, free 10 micromolar; average and SEM of 6
[3] = Effect on systemic blood pressure (tail cuff); type: in vivo, NOD/SCID and NOD/SCID IL2Rγ^null mice; conditions: 5 μmol/kg intravenous, awake mice, up to 2 hours
Source text: This example illustrates the effect of JS-K in Pluronic® micelles on systemic blood pressure. […] The proportion of JS-K to Pluronic® polymer in solution was 1.53% by weight.
Awake, unanesthetized NOD/SCID and NOD/SCID IL2Rγ^null mice were used for these experiments.

HL-60 cells [4] = assay: In vivo anti-leukemic activity, HL-60 flank tumors; design: species or system NOD/SCID IL2Rγ^null mice; conditions: 4 μmol/kg intravenously 3 times per week; p=0.01 by F-test
Source text: This example illustrates the in vivo anti-leukemic activity of JS-K in Pluronic® micelles. NOD/SCID IL2Rγ^null mice were inoculated with 5×10^6 HL-60 cells in each flank. […] The proportion of JS-K to Pluronic® polymer in solution was 2.0% by weight. Injections were given 3 times per week intravenously. The dose of free and micelle-formulated JS-K was 4 μmol/kg. […] A linear mixed model using SAS PROC MIXED was fit to the data in FIG. 8, using a random effect to account for correlation among measurements within the same animal.

[5] = Dialysis retention of JS-K (loading in micelles); type: physicochemical; conditions: 2 hours of dialysis; JS-K levels by HPLC; JS-K to polymer 10% by weight
Experimental: This example illustrates the extent of JS-K loading in micelles. JS-K was loaded in Pluronic® P123 and L121 polymers to form micelles. The proportion of JS-K to Pluronic® polymer in solution was 10% by weight. The JS-K micelle preparations were then dialyzed for 2 hours. A parallel experiment following the same procedures with free JS-K was set up as a control. After 2 hours of dialysis, JS-K levels were measured by HPLC to estimate the percent of JS-K retained.

HL-60 cells [6] = assay: In vitro cytotoxicity, MTS assay; type: cell-based
Experimental: The in vitro cytotoxicity of JS-K in Pluronic® micelles was studied in this example. JS-K was loaded in F68, P105, or F127 Pluronic® micelles as described above. […] […] Similar control experiments were set-up with equivalent concentrations of each Pluronic® micelle without JS-K. After a 3 day incubation, cell growth was measured using the MTS assay. […] Equivalent empty micelles at equal concentrations (0.08% w/v) had no significant effect on cell growth (not shown).

- percent recovery after 60 minute incubation [1]: 39+/−0%
- percent recovery after 60 minute incubation [2]: 10.53+/−1.42%
- Percent retention of JS-K after dialysis [5]: 31%
SMILES: CCOC(=O)N1CCN(/[N+]([O-])=N/Oc2ccc([N+](=O)[O-])cc2[N+](=O)[O-])CC1 [free JS-K, O^2-(2,4-dinitrophenyl) 1-[(4-ethoxycarbonyl)piperazin-1-yl]diazen-1-ium-1,2-diolate]
- sustained drop in systolic blood pressure [3]: around 20 % of baseline
- rate of tumor growth, free vs micelle JS-K (linear mixed model) (HL-60 cells [4]): significantly higher
- inhibition of leukemia cell growth (HL-60 cells [6]; 0.5 μM, 3 day incubation, MTS, JS-K to polymer 4% by weight): 62%
- IC50 (HL-60 cells [6]; JS-K to polymer 1.97% by weight): 450 nM
